Assay results published in PubChem BioAssay (NCI).
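1) Cells in 96-well plates. 2) Compound, 48 h, 5 concentrations. 3) Linear interpolation between surrounding doses. 4) Unreached endpoint = highest concentration. GI50: concentration for 50% inhibition of growth. TGI: total growth inhibition.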

How the values were obtained:
Assay in all cases: NCI anticancer screen, dose series, 48 h
[1] = test system: COLO 205 colon
[2] = test system: SK-MEL-2 melanoma
[3] = test system: KM12 colon
[4] = test system: T-47D breast
[5] = test system: SNB-19 CNS
[6] = test system: ACHN renal
[7] = test system: SK-MEL-28 melanoma
[8] = test system: HL-60(TB) leukemia
[9] = test system: SW-620 colon
[10] = test system: BT-549 breast

Row | Structure (SMILES) | TGI [1] | TGI [2] | TGI [3] | TGI [4] | TGI [5] | TGI [6] | TGI [7] | TGI [8] | TGI [9] | TGI [10] | GI50 [1] | GI50 [2] | GI50 [3] | GI50 [4] | GI50 [5] | GI50 [6] | GI50 [7] | GI50 [8] | GI50 [9] | GI50 [10]
1 | CCCOC(=O)C1C2CCC(O2)C1C(=O)O (stereo not drawn) | > 100 µM | > 100 µM | > 100 µM | > 100 µM | > 100 µM | > 100 µM | > 100 µM | > 100 µM | > 100 µM | > 100 µM | – | – | – | – | – | – | – | – | – | –
2 | O=C(Nc1cccc(C(F)(F)F)c1)c1cc2ccccc2cc1O | 4.6 µM | 18.7 µM | 8.44 µM | 58 µM | > 100 µM | > 30.4 µM | > 100 µM | 12.1 µM | > 100 µM | 6.09 µM | 1.9 µM | 2.7 µM | 2.45 µM | 1.68 µM | 1.75 µM | 1.78 µM | 3.05 µM | 1.15 µM | 2.51 µM | 1.27 µM
3 | Cc1cc2nc3c4ccc(Br)cc4n(CCN(C)C)c3nc2cc1C | – | 4.24 µM | 4.66 µM | 6.6 µM | 7.52 µM | 2.23 µM | 3.12 µM | 5.68 µM | 1.84 µM | 3.75 µM | – | 2 µM | 1.54 µM | 2.05 µM | 1.6 µM | 0.459 µM | 1.69 µM | 1.45 µM | 0.478 µM | 1.71 µM
4 | COc1ccc(C(=O)c2cc3c(N)c(C(=O)Nc4cccc(OC)c4)sc3nc2C)cc1 | > 59 µM | > 100 µM | > 100 µM | > 100 µM | > 100 µM | > 100 µM | > 100 µM | 1.52 µM | > 100 µM | > 100 µM | 1 µM | > 100 µM | 0.568 µM | 4.7 µM | 0.513 µM | 0.853 µM | > 100 µM | 0.311 µM | 0.446 µM | 1.67 µM
5 | COc1cc(/C=N/NC(=O)c2ccccc2Nc2cccc(C(F)(F)F)c2)cc(OC)c1OC | 9.87 µM | 33.2 µM | 4.17 µM | 13.5 µM | 18.5 µM | 13.3 µM | 8.16 µM | 4.73 µM | 6.36 µM | 9.23 µM | 2.72 µM | 9.63 µM | 1.29 µM | 3.33 µM | 3.85 µM | 3.3 µM | 2.28 µM | 2.01 µM | 1.71 µM | 2.3 µM
6 | C=CC(C)(O)CC/C=C(\CO)C(=O)OC1C(C)OC(O[C@](C)(C=C)CC/C=C(\CO)C(=O)O[C@H]2C[C@@]3(C(=O)OC4OC(CO)C(O)C(O)C4OC4OC(C)C(OC5OC(CO)C(O)C5O)C(OC5OC(CO)C(O)C(O)C5O)C4O)C(CC2(C)C)C2=CCC4[C@@]5(C)CC[C@H](OC6OC(COC7OC(C)C(O)C(O)C7OC7OCC(O)C(O)C7O)C(O)C(O)C6NC(C)=O)C(C)(C)C5CC[C@@]4(C)[C@]2(C)C[C@H]3O)C(O)C1O (stereo partly drawn) | 0.927 µM | 1.5 µM | 1.98 µM | 0.739 µM | 1.12 µM | 0.209 µM | 0.248 µM | 2.53 µM | 4.27 µM | 10.6 µM | 0.168 µM | 0.229 µM | 0.285 µM | 0.155 µM | 0.107 µM | 0.0771 µM | 0.0852 µM | 0.13 µM | 0.143 µM | 5.04 µM
7 | Nc1nc(N)c2c(n1)NC(c1sc(Cl)nc1Cl)CC(c1ccc3c(c1)OCO3)=N2 (stereo not drawn) | 12.7 µM | 19 µM | 21.4 µM | 64.1 µM | 48.2 µM | 26.4 µM | 29.2 µM | 13.3 µM | 21.5 µM | 18.9 µM | 3.48 µM | 5.19 µM | 3.93 µM | 5.36 µM | 4.83 µM | 5.86 µM | 7.63 µM | 3.61 µM | 2.98 µM | 3.79 µM
8 | CC(C)NC(=O)OCc1c(COC(=O)NC(C)C)c(-c2cc[n+](COC(=O)C3CCCCC3)cc2)n2c1CCC2 | > 100 µM | > 100 µM | > 100 µM | > 100 µM | > 100 µM | > 100 µM | > 100 µM | > 100 µM | > 100 µM | > 100 µM | – | – | – | – | – | – | – | – | – | –
9 | CC(N1CCOCC1)C(O)(c1ccccc1)c1ccccn1 (stereo not drawn) | > 100 µM | > 100 µM | > 100 µM | > 100 µM | > 100 µM | > 100 µM | > 100 µM | > 100 µM | > 100 µM | > 100 µM | – | – | – | – | – | – | – | – | – | –
10 | O=S(=O)(O)SCCNCCCCCC1CCCCC1 | 30.3 µM | 8.68 µM | 7.76 µM | 35.7 µM | 10.8 µM | 30.3 µM | 18.3 µM | > 100 µM | 21.7 µM | 31.4 µM | – | – | – | – | – | – | – | – | – | –
11 | Nc1c(C(=O)Nc2cccc3ccccc23)sc2nc3c(cc12)C(=O)CCC3 | 0.418 µM | 19.1 µM | > 100 µM | > 100 µM | > 81 µM | > 58.2 µM | 53.4 µM | 0.804 µM | > 100 µM | > 67.1 µM | 0.15 µM | 0.0915 µM | 0.217 µM | 0.759 µM | 0.603 µM | 0.341 µM | 0.341 µM | 0.246 µM | 0.222 µM | 3.08 µM
